In US10519132B2, “Isocorydine derivatives, preparation method and use thereof” (Lanzhou Institute of Chemical Physics, Chinese Academy of …, priority 2017, dated 2019):
Read-outs that look alike come from different tables or passages of the source.

Experiments:
[1] = tested on: human liver cancer cell strain HepG2; assay: MTT growth inhibition on HepG2; type: cell-based; details: read-out: IC50 HepG2;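 note: adherent cells in 96-well plates treated with a concentration series for 24, 48 or 72 h, MTT absorbance read at 490 nm, inhibition computed relative to untreated control wells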
Protocol: (§5) By using an MTT method, a sample solution to be tested was added to a 96-well plate in which cancer cells were adherently grown. Culturing was performed for a certain period, and the growth inhibition effect of a compound on a human cancer cell strain for primary screening was measured to determine the anti-cancer activity of the compound.
(§6) Cell culture: A cell incubator was set to conditions of 37° C., 5% CO2, and a saturated humidity, cells were cultured under these conditions, and the cell medium was a DMEM complete medium, wherein 10% fetal bovine serum, 100 IU/mL penicillin, and 100 μg/mL streptomycin were comprised.
(§7) The single cell suspension was diluted to 5×10^3/100 μL after counting, inoculated on a 96-well cell culture plate (triplicate), and adherently cultured overnight;
(§8) After 24 h of adhesion, the complete medium was discarded, 100 μL-sample-solutions to be tested having different concentrations were sequentially added to the 96-well plate according to a concentration gradient, and incubations were continued for 24 h, 48 h, and 72 h;
(§9) The culture liquid was discarded, a 0.5 mg/mL MTT diluted working liquid was added, and incubation was performed for 4 h by placing in an incubator;
(§10) The culture liquid was discarded, 100 μL of DMSO was added, low-speed oscillation was performed for 10 min by placing on a shaker, and the spectrophotometric value of each well was measured at a wavelength of 490 nm by using a microplate reader. Statistical analysis was performed and tumor cell growth inhibition rate was calculated according to the equation: Growth inhibition rate=(OD value of control group−OD value of experimental group)/OD value of control group.
(§11) Culturing was performed for a certain period, the growth inhibition effect of a compound on 3 human cancer cell strains for primary screening was measured to determine the anti-cancer activity of the compound, and a growth inhibition curve was plotted.

[2] = tested on: C-Myc, Ki-67, CylinD1, β-Catenin protein; assay: Western blotting, protein expression in HepG2 cells; type: cell-based, human; details: sorafenib 4 μg/mL; for expressions of C-Myc, Ki-67, CylinD1 and β-Catenin protein compared to the blank control group: high COM33 dosage 10.0 μg/mL, combination 4 μg/mL sorafenib+5.0 μg/mL COM33
Protocol: (§1) Method: Gel electrophoresis of protein samples. Gel formulation: All components were added to a small beaker according to a formulation of a separation gel, uniformly mixed with slightly shaking to prevent the generation of bubbles, quickly applied to a seam of a glass plate with a 1 mL pipette, and then blocked with double distilled water to prevent oxidation. After 30 min, the separation gel solidified, the double distilled water thereof was poured off, waster was suctioned with a filter paper, a 5% concentration gel was formulated, TEMED was finally loaded onto the glass plate, and a 1.0 mm comb was inserted into the concentration gel and placed at room temperature for 30 min. The comb was slightly, vertically, and carefully pulled up, various groups of 20 μL protein samples were pipetted with a microsyringe, an equal volume of a loading buffer and an equal volume of a loading buffer containing 3 μL of Marker were separately added to a loading well, an electrophoresis instrument was switched on after electrodes were plugged, gels were run at 75V for 30 min, and the voltage was changed to 120V and gels were run for 2 h when bromophenol blue reaches the separation gel. Membrane transfer: A PVDF membrane having a suitable size was cut according to the size of the gel, placed in a methanol solution for 1 min, lifted, and placed and soaked together with a well cut filter paper in a previously precooled membrane transfer buffer. A sponge pad, three layers of filter paper, a gel, three layers of filter paper, and a sponge pad, in this order from top to bottom, were placed in a membrane transfer tank, and a precooled membrane transfer buffer was then added. Several ice bags were placed circumferentially to prevent an excessively hot external environment, and electrodes were plugged and membrane transfer was performed at a constant current of […] for 2.5 hours. Blocking and incubation of antibodies: A transferred membrane was cut into desired bands, which were placed in a blocking solution of 5% skim milk powder, placed on a shaker, and shaken at room temperature at a low speed for 1 h. A primary antibody was diluted with the blocking solution, a corresponding antibody was pipetted and added to a zip lock bag, the PVDF membrane was then placed in the antibody dilution, bubbles in the zip lock bag were evacuated, and the zip lock bag was sealed and placed in a refrigerator at 4° C. overnight. The membrane was withdrawn from the zip lock bag on the second day, and placed in a clean dish. A TBST solution was added and washed 3 times on a low-speed shaker, 10 min for each time. […]

Vimentin = assay: Western blotting, Vimentin expression in HepG2 cells; type: cell-based, human
Protocol: as §1

[3] = tested on: ascites hepatoma H22 induced solid tumor; assay: In vivo tumor growth inhibition in mice bearing H22; parameters: species or system white Kunming mice
From the text: 1. Tumor strain and animal for experiments: H22 liver cancer cell strain was provided by Teaching and Research Office, School of Basic Medical Sciences, Lanzhou University/Key Lab of Preclinical Study for New Drugs of Gansu Province, and was passage and preserved by periodically intraperitoneal inoculation. White Kunming mice (18.0-22.0 g) were provided by Lanzhou Veterinary Institute, Chinese Academy of Agriculture.
(§2) 2. Establishment of tumor models and method of grouping: a third passage of mice which were well grown 7 d after intraperitoneal inoculation of H22 tumor cells were sacrificed by cervical dislocation, and placed and soaked in 75% alcohol for 10 min. After 3 mL of sterile physiological saline was intraperitoneally injected, milky tumor cell ascites was withdrawn from the abdominal cavity, and formulated into a tumor cell suspension with sterile physiological saline, with a cell number of 1.5×10^7 mL^−1. 80 white Kunming mice were taken, and 0.2 mL of the tumor cell suspension was subcutaneously inoculated to the left axilla of each mouse. 24 h after the inoculation of tumor cells, the mice were divided into 8 groups according to body weights, 10 mice for each group. […] All of the administration manners were intraperitoneal administration.
(§3) 3. Result of experiments: On the second day of modeling, continuous administration was performed for 10 d. Administration was stopped on the 11th d, and mice were sacrificed by cervical dislocation on the next day.
Test method: For the test method, see Example 24. Results can be seen in FIG. 15, FIG. 16, and Table 5.
(§4) Method: Modeling was performed by using the method of establishing H22 white mice tumor-bearing model of Example 24. The in vivo tumor growth inhibition activity of COM33 on H22 model mice was measured in an intraperitoneal injection administration manner.

[4] = tested on: ascites hepatoma H22 induced solid tumor; assay: as above; parameters: species or system white Kunming mice; details: Table 6; low COM33 dosage group (50 mg/Kg), intraperitoneal injection
[5] = tested on: human cervical cancer Hela cell strains; assay: MTT growth inhibition on Hela;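 note: compound exposure of 24, 48 or 72 h in DMEM with 10% fetal bovine serum, MTT absorbance read at 490 nm, inhibition calculated relative to control group OD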
Protocol: as §5, §6, §7, §8, §9, §10, §11

[6] = tested on: human gastric cancer cell strain MGC-803; assay: MTT growth inhibition on MGC-803;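 note: adherent cells exposed to compound over a concentration gradient for 24, 48 and 72 h, MTT absorbance at 490 nm, inhibition relative to untreated control wells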
Protocol: as §5, §6, §7, §8, §9, §10, §11

various HCC = details: background; read-out: IC50 values, inhibition of tumor growth of various HCC; cited from earlier work
[7] = background; cited from earlier work
HepG2 cells [8] = assay: Apoptosis induction, Annexin V and PI double-staining, flow cytometry; type: cell-based, human; details: HepG2, 24 h; sorafenib 4 μg/mL; combination 4 μg/mL sorafenib+5 μg/mL FICD
Protocol: Different concentrations of FICD were added on the second day, culture was continued for 24 h, cells were collected and washed 3 times with precooled PBS, and adherent cells were digested with trypsin free of EDTA. The solutions were combined, centrifuged, and washed 3 times again with precooled PBS. 400 μL of solution containing 5 μL of V-FITC and 10 μL of PI was added, incubation was performed at room temperature under protection from light, and detection was performed by flowcytometry after 30 min.

HepG2 cells [9] = assay: Cell cycle distribution by flow cytometry; type: cell-based, human; details: sorafenib 5 μg/mL, FICD 10 μg/mL, combination 5 μg/mL FICD+10 μg/mL sorafenib
Protocol: 1 mL of 70% precooled (−20° C.) ethanol was added to the cell precipitate, homogenized by pipetting, and fixed at 4° C. overnight. On the second day, HepG2 cells was collected by centrifugation, 2 mL of precooled PBS was added for washing 3 times, 500 μL of PBS containing 50 μg/mL […] (PI) and 100 μg/mL RNaseA was added, and incubation was performed at 4° C. under protection from light for 30 min. Detection was performed on a flow cytometer, and results can be seen in FIG. 9 and FIG. 10.

HepG2 cells [10] = assay: Apoptosis induction by laser confocal scanning microscope; type: cell-based, human; details: HepG2, 48 h
Protocol: Two solutions (a former one and a later one) were mixed, centrifugation was performed at 1000 r/min for 5 min, the supernatant was discarded, and washing was performed for 3 times with PBS. The cell precipitate was resuspended in Binding Buffer, 10 μL of a FITC-Annen V staining liquid was added, homogenized by pipetting slightly, and reaction was performed under protection from light. PI was added for staining for 15 min, centrifugation was performed, the supernatant was discarded, and washing was performed for 3 times again with PBS. A glass slide was loaded by applying the cell precipitate thereto and mounted with non-fluorescent buffering glycerol, a laser confocal scanning microscope was immediately used for observation and taking photographs at wavelengths of 488 nm and 560 nm. Meanwhile, cells without AnneixnV-FITC and PI added were used as a negative control.

[11] = parameters: species or system white Kunming mice; details: mouse, in vivo
Protocol: as §2, §3, §4

[12] = tested on: hepatocellular carcinoma in late stages; details: background; cited from earlier work
[13] = Homo sapiens, HepG2, Table 2, MTT
[14] = COM33 experiment (FIG. 17), combination compared to the sorafenib group

For `COc1cc(NC(=O)Nc2ccc(N3CCC(CN)CC3)c(C(F)(F)F)c2)c2c(c1O)-c1c(OC)c(OC)cc3c1[C@H](C2)N(C)CC3` [Compound 17], the IC50 ([1]; Homo sapiens, HepG2, Table 1, MTT) was less than 10 µM, the IC50 [1, 13] was 7.51 µM and the “expressions of C-Myc, Ki-67, CylinD1 and β-Catenin protein compared to the blank control group” value [2] was “significantly reduced”. For the same molecule, the Vimentin expression (Vimentin; [14]) was “expressed in all groups”, the “Tumor inhibition rate (%)” value ([3]; Table 6, high COM33 dosage group (100 g/Kg), intraperitoneal injection) was 73.8% and the “Tumor inhibition rate (%)” value [4] was 27.2%. It also gave an IC50 ([5]; Homo sapiens, HeLa, read-out: IC50 HeLa, Table 1, MTT) of less than 10 µM, an IC50 ([5]; Homo sapiens, HeLa, read-out: IC50 Hela, Table 2, MTT) of 6.32 µM and an IC50 ([6]; Homo sapiens, MGC-803, read-out: IC50 MGC-803, Table 1, MTT) of less than 10 µM. For the same molecule, the IC50 ([6]; Homo sapiens, MGC-803, read-out: IC50 MGC-803, Table 2, MTT) was 11.1 µM.

For `COc1ccc2c(c1O)-c1c(OC)c(OC)cc3c1[C@H](C2)N(C)CC3` [ICD, isocorydine], the IC50 [1, 13] is listed as 569 µM, the IC50 (various HCC) is listed as greater than 200 µM and the IC50 ([5]; Homo sapiens, HeLa, read-out: IC50 HeLa) is listed as 581 µM. The IC50 ([6]; Homo sapiens, MGC-803, read-out: IC50 MGC-803) was 388 µM.

For `COc1cc(N)c2c(c1O)-c1c(OC)c(OC)cc3c1[C@H](C2)N(C)CC3` [NICD, 8-amino-isocorydine, reference compound], the IC50 ([1]; Table 2, MTT) is given as 51.1 µM, the “stability on storage in an aqueous solution” value [7] is given as “cannot be stored in an aqueous solution for a long period” and the IC50 ([5]; read-out: IC50 Hela, Table 2, MTT) is given as 44.1 µM. For the same molecule, the IC50 ([6]; read-out: IC50 MGC-803, Table 2, MTT) was 62.1 µM.

With `CNC(=O)c1cc(Oc2ccc(NC(=O)Nc3ccc(Cl)c(C(F)(F)F)c3)cc2)ccn1` [Sorafenib, reference compound] the apoptosis rate (HepG2 cells [8]) was 29.33%, the “cell cycle distribution compared to the blank control group” value (HepG2 cells [9]) was “cells significantly increased in the G0/G1 phase of the cell cycle and significantly decreased in the S phase” and the “apoptosis and cell morphology, Anneixn V-FITC and PI double-staining” value (HepG2 cells [10]) was “apoptoses occurred during various phases”. For the same molecule, the “expressions of C-Myc, Ki-67, CylinD1 and β-Catenin protein compared to the blank control group” value [2] was “significantly reduced”, the “expressions of C-Myc, Ki-67, CylinD1 and β-Catenin protein compared to the blank group” value ([2]; high FICD dosage 20 μg/mL, combination 4 μg/mL sorafenib+10 μg/mL FICD) was “significantly reduced” and the Vimentin expression (Vimentin; [14]) was “expressed in all groups”. For the same molecule, the Vimentin expression (Vimentin; FICD experiment (FIG. 12)) was “significantly increased”, the “Tumor inhibition rate (%)” value ([3]; Table 4, sorafenib 50 mg/Kg, intraperitoneal, 10 d) was 55.8% and the “Tumor inhibition rate (%)” value ([3]; Table 6, sorafenib 50 mg/Kg, intraperitoneal injection) was 56.5%. For the same molecule, the “toxic and side effects on increased dosage” value [11] was “toxic and side effects of sorafenib would obviously occur, resulting in death of experimental animals” and the “elongation of overall survival time of an HCC patient” value [12] was 2 months.
